In patent EP1448559B1, “5-(4-(2-(N-METHYL-N-(2-PYRIDYL)AMINO)ETHOXY)BENZYL)THIAZOLIDINE-2,4-DIONE BENZENESULFONATE; PROCESS FOR ITS PREPARATION; POLYMORPHS I, II AND III THEREOF; AND ITS USE AS PHARMACEUTICAL ACTIVE INGREDIENT” (SMITHKLINE BEECHAM PLC, priority 2001, dated 2003):

Assay: Solubility in water (visual, confirmed by HPLC assay of a saturated solution)

Compound | solubility (water added in aliquots from 1 to 1000ml to approximately 100mg of drug substance, confirmed by HPLC assay of a saturated solution) | solubility (water)
CN(CCOc1ccc(CC2SC(=O)NC2=O)cc1)c1ccccn1 (centres unmarked) [Benzenesulfonate Form II, 5-[4-[2-(N-Methyl-N-(2-pyridyl)amino)ethoxy]benzyl]thiazolidine-2,4-dione benzenesulfonate Form II] | 1.4 mg/mL | –
CN(CCOc1ccc(CC2SC(=O)NC2=O)cc1)c1ccccn1 (centres unmarked) [Benzenesulfonate propan-2-ol solvate, 5-[4-[2-(N-Methyl-N-(2-pyridyl)amino)ethoxy]benzyl]thiazolidine-2,4-dione benzenesulfonate propan-2-ol solvate] | – | 1.6 mg/mL
